Experimental data as given in PMC7804942, “The amphibian peptide Yodha is virucidal for Zika and dengue viruses” (Scientific Reports, 2021).
Where a SMILES comes first, the peptide text is derived from it.

Key:
human red blood cells = format: cell-based
Protocol: Single donor human red blood cells (Innovative Research) were washed in PBS (pH 7.4) with three times centrifugation at 500 × g for 5 min. Serially diluted frog peptides or OVA control peptide were prepared in V-bottom 96 well plates and mixed with washed 2 × 10^7 human RBC per each well for 1 h at 37 °C. PBS solution was used as a negative control (0% lysis), and 0.1% Triton X-100 in PBS was used as 100% lysis. The plates were centrifuged at 300 × g at 4 °C for 5 min to pellet the intact RBCs and supernatant of each well was measured by absorbance at 450 nm.

[1] = test system: ZIKV P6-740 (Malaysia, 1966); experiment: Focus forming assay, ZIKV strain panel; format: cell-based, Zika virus; details: 50 µM and 100 µM peptide vs OVA control, FFA
Protocol: (§1) For all our experiments in Fig. 1, we used the PRVABC59 (Puerto Rico 2015) strain of ZIKV. […] The Yodha peptide inhibited all ZIKV strains (Fig. 1H,I).
(§2) Peptides were incubated with ZIKV (100 FFU/well) for 2 h at 37 °C. This incubated mixture was used to infect Vero cells for 1.5 h at 37 °C. Cells and inoculum were overlaid with 2% methylcellulose solution (OptiMEM; Gibco) and incubated for 72 h at 37 °C. Cells were washed with PBS and fixed with a 1:1 methanol/acetone mixture for 30 min. Cells were blocked with 5% milk/PSB at room temperature for 20 min and incubated with primary antibody (anti-flavivirus mouse 4G2[10] antibody) for 2 h at 37 °C. Then, cells were incubated with secondary antibody (HRP-conjugated goat anti-mouse IgG, Cell Signaling) for 1 h at 37 °C. Cells were developed with TrueBlue Peroxidase Substrate (KPL). Plates were read on a CTL-ImmunoSpot S6 Micro analyzer.

[2] = test system: ZIKV MR-766 (Uganda, 1947); experiment: Focus forming assay, ZIKV strain panel; format: cell-based, Zika virus; details: 50 µM and 100 µM peptide vs OVA control, FFA
Protocol: as §1, §2

[3] = test system: ZIKV DakAr41524 (Senegal 1984); experiment: Focus forming assay, ZIKV strain panel; format: cell-based, Zika virus; details: 50 µM and 100 µM peptide vs OVA control, FFA
Protocol: as §1, §2

CC[C@H](C)[C@H](NC(=O)[C@@H](NC(=O)CNC(=O)[C@H](CC(C)C)NC(=O)[C@H](Cc1ccccc1)NC(=O)[C@H](Cc1ccccc1)NC(=O)[C@H](CC(C)C)NC(=O)[C@H](CC(C)C)NC(=O)[C@H](CC(C)C)NC(=O)[C@H](CCSC)NC(=O)[C@@H](N)CO)[C@@H](C)O)C(=O)N[C@@H](CO)C(=O)N[C@@H](CC(C)C)C(=O)N[C@@H](CO)C(=O)N[C@@H](CC(C)C)C(=O)N[C@@H](CS)C(=O)N[C@@H](CCC(N)=O)C(=O)N[C@@H](CC(=O)O)C(=O)N[C@@H](CC(=O)O)C(=O)N[C@@H](CCC(N)=O)C(=O)N[C@@H](CCC(=O)O)C(=O)N[C@@H](CCCNC(=N)N)C(=O)N[C@@H](CS)C(=O)O [Yodha] (H-SMLLLFFLGTISLSLCQDDQERC-OH; N-terminus and C-terminus assumed)
cytotoxicity against human erythrocytes (screen of the 12 hits) (human red blood cells): no cytotoxicity | inhibition of ZIKV strain [1]: inhibited | inhibition of ZIKV strain [2]: inhibited | inhibition of ZIKV strain [3]: inhibited
